US20100008868A1, “SUSTAINED REMISSION OF ATOPIC DERMATITIS” (priority 2007, published 2010)

Experiments:
atopic dermatitis [1] = settings: 0.2%, 0.6% and 1.0% creams; 260 patients; cited from earlier work
[2] = 15, 45, and 120 mg/kg/day orally, 39 weeks; cited from earlier work
atopic dermatitis [3] = settings: cited from earlier work
atopic dermatitis [4] = assay: Topical treatment of atopic dermatitis lesions in individual subjects (case reports, Examples 11-15); format: in vivo, human; settings: topical application to atopic dermatitis lesion
Source text: The product was applied on an irregular basis with the longest exposure time at night.
A subject with an atopic dermatitis lesion on the palm of the right hand is presently being treated with the invention containing betamethasone and clemastine hydrogen fumarate.

[5] = 192 adults with moderate to severe AD

Compound	efficacy vs vehicle (atopic dermatitis [1])	finding associated with oral dosing [2]	days on which corticosteroid medication for flares was used (atopic dermatitis [3]; 24-week treatment period)	median time to first flare (atopic dermatitis [3]; [5]) [days]	patients who did not experience a flare (atopic dermatitis [3]; [5]) [%]	outcome of the lesion (atopic dermatitis [4])
CC[C@@H]1/C=C(\C)C[C@H](C)C[C@H](OC)[C@H]2O[C@@](O)(C(=O)C(=O)N3CCCC[C@H]3C(=O)O[C@H](/C(C)=C/[C@@H]3CC[C@H](Cl)[C@H](OC)C3)[C@H](C)[C@@H](O)CC1=O)[C@H](C)C[C@@H]2OC [pimecrolimus]	significantly more effective than vehicle	immunosuppression-related lymphoproliferative disorders	14.2 % of the days	144	44.8	
betamethasone propionate						no improvement
